Reference: patent US20240043943A1, “METHODS AND COMPOSITIONS FOR PROTEASE REPORTER ASSAYS AND MODULATORS” (712 NORTH, INC., priority 2021, published 2024)
pEC50: −log10 of the molar value. “Also recorded” adds a separate entry of the source.

Experiments:
[1] = test system: OPA1; test: OPA1 hydrolysis in Hek293T cells by Western blot; type: cell-based, human; details: 30 minutes
From the text: (§1) OPA1 hydrolysis can be monitored by Western blotting. […] The predicted size of full-length Luke-S1 is 31.8 kDa.

[2] = test system: reporter #01; test: Rep#01 reporter hydrolysis in Hek293T cells by Western blot; type: cell-based, human; details: 10 μM CCCP, 30 minutes
Experimental: Example 2 refers to FIG. 4 and illustrates hydrolysis of reporter #01 and reporter #15. For this example, transfected cells were selected by puromycin. Reporter cells were exposed for 30 minutes to 10 μM CCCP before being harvested in RIPA buffer and subjected to 12% SDS-PAGE followed by Western-blotting. […] Full-length reporter #01 has a predicted size of 39.6 kDa but was not detected in Western blots. […] At the same time, reporter #15 is not processed upon import, but migrated at its expected size of 31.9 kDa. (Example 7 establishes mitochondrial import by showing co-migration of reporter #15 with OPA1 and OMA1 in mitochondria-enriched fractions.) Reporter #15 appears to be more abundant and stable, which may explain its better performance. […] This provides additional evidence that reporter #15 is indeed localized in mitochondria where it is recognized and hydrolyzed by OMA1. […] Therefore, phenanthroline was used as a positive control in the reporter assay. If reporter #15 indeed is cleaved by OMA1, then phenanthroline should prevent this at least to a certain extend by inhibiting OMA1 and accordingly preserving the signal. Hek293T cells were transfected with reporter gene #15 as described in the preceding example. […] After 30 minutes, the medium was replaced with furimazine (1:100 in OptiMEM), and bioluminescence measured as described in Example 1.

[3] = molecular target: T1, Luke (native NanoLuc enzyme) (Oplophorus gracilirostris, UniProt Q9GV45, A31E/A60N/A81I/F95D/I117V/K70R/L54V/L99Q/M102K/N193R/P142E/Q151K/Q38R/Q45L/V71I/Y165I); test: Luke (native NanoLuc) control cell bioluminescence assay in Hek293T cells; type: cell-based; details: for bioluminescence of Luke cells in dose-response: 30 minutes incubation
T1 construct: expressed in transfected cells
From the text: (§2) Luke-S1 is targeted to the mitochondrial inner membrane by an 86 amino acid portion of OPA1's […] with the protein sequence SEQ ID NO: 27 and the DNA sequence SEQ ID ID NO:28.

[4] = molecular target: T2, OMA1 protease (Homo sapiens, UniProt Q96E52); test: Rep#15 / Luke-S1 OMA1 reporter bioluminescence assay in Hek293T cells; type: cell-based; set-up: The OMA1 enzyme is dormant under physiological cell culture conditions in these cells; endogenous in cells; host or cells: Hek293T cells, transiently or stably (Luke-S1 line, ATCC PTA-127022) expressing reporter #15; details: Hek293T, 30 minutes exposure; CCCP 10 μM
T2 sequence (Q96E52 144-524): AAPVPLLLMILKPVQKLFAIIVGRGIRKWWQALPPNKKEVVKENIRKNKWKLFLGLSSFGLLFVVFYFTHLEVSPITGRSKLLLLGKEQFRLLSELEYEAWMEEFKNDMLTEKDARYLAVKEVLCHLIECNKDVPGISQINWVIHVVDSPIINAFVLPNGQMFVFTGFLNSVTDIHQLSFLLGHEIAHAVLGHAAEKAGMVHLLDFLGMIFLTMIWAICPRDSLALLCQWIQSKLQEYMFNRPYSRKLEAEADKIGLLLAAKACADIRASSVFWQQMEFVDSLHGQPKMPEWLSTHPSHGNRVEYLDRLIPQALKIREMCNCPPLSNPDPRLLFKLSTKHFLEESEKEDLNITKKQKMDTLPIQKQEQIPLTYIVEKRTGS
From the text: Example 1 provides a nonlimiting example of generation and use of a reporter of present invention and illustrates its function. To this end, generation and use of reporter gene #01 (SEQ ID NO: 01) and reporter gene #15 (SEQ ID NO: 15) are described and their function compared to each other. The general design of a reporter of present invention is illustrated in FIG. 1A and its working principle in FIG. 1B. A reporter in general, and reporter gene #01 and reporter gene #15 in particular, can be generated as follows. DNA sequences of a reporter may be codon-optimized in silico or by any other way for expression in a suitable host. DNA sequences of reporter genes #01 and #15 were codon-optimized for expression in humans (SEQ ID NO: 02 and SEQ ID NO: 16, respectively). The (optimized) sequences were synthesized and cloned into a pcDNA3.1 expression vector under the control of a CMV promotor (see FIG. 1 for an illustration of such vector). Of course, an expression system and a host should match for best results. The host in this example were Hek293T cells, which were maintained under standard culture conditions in DMEM with 10% Fetal Bovine Serum and 1% Pen/Strep. For an experiment, Hek293T cells were seeded in opaque white tissue-culture treated 96-well plates at 80% confluency and transfected with vectors carrying reporter gene #01 and reporter gene #15 and 24 hours later incubated for 30 minutes at 37° C. in OptiMEM or in OptiMEM with 10 μM CCCP. After 30 minutes, the OptiMEM cell-culture media was replaced with luciferase substrate (furimazine, Promega) diluted 1:100 in OptiMEM, and bioluminescence was measured with a Fluoroskan Ascent FL (Thermo Scientific) using a 517 nm single-pass filter and 200 milliseconds integration time. […] Reporter #01 comprises a large part of OPA1's amino-terminus as mitochondrial targeting sequence, which is cleaved by the mitochondrial processing peptidase upon mitochondrial import (see Example 2). Reporter #15 was initially envisioned as a control for reporter #01. Reporter #15 therefore lacks the first 66 amino acids of reporter #01 believed to be essential for mitochondrial import.
Example 5 illustrates how mitochondrial toxicity can be measured with reporter and assays of present invention. The OMA1-OPA1 pathway basically serves as a “canary-in-the-coalmine” for a mitochondrial deterioration. […] Hek293T cells expressing reporter #01 and #15 were exposed to CCCP, tipranavir and sorafenib (in OptiMEM) for 30 minutes before the medium was replaced with furimazine (1:100), and bioluminescence measured.
The following non-limiting examples illustrate in more details the in vivo assessment of OMA1 protease activity utilizing an artificial luciferase reporter of present invention stably expressed in Hek293T cells.

[5] = test system: Luke-TEV reporter; test: Luke-TEV reporter cleavage in Hek293T cells by Western blot; type: cell-based, human; details: 3 μM CCCP or 100 nM valinomycin
From the text: as §1

[6] = test system: Luke-TEV reporter; test: Luke-TEV control reporter bioluminescence assay in Hek293T cells; type: cell-based, human
From the text: as §2

[7] = molecular target: T2, OMA1 protease; test: Rep#01 OMA1 reporter bioluminescence assay in Hek293T cells; type: cell-based; set-up: The OMA1 enzyme is dormant under physiological cell culture conditions in these cells; endogenous in cells; host or cells: Hek293T cells, transiently or stably (Luke-S1 line, ATCC PTA-127022) expressing reporter #15; details: 30 minutes exposure, CCCP 10 μM
From the text: Example 1 provides a nonlimiting example of generation and use of a reporter of present invention and illustrates its function. To this end, generation and use of reporter gene #01 (SEQ ID NO: 01) and reporter gene #15 (SEQ ID NO: 15) are described and their function compared to each other. The general design of a reporter of present invention is illustrated in FIG. 1A and its working principle in FIG. 1B. A reporter in general, and reporter gene #01 and reporter gene #15 in particular, can be generated as follows. DNA sequences of a reporter may be codon-optimized in silico or by any other way for expression in a suitable host. DNA sequences of reporter genes #01 and #15 were codon-optimized for expression in humans (SEQ ID NO: 02 and SEQ ID NO: 16, respectively). The (optimized) sequences were synthesized and cloned into a pcDNA3.1 expression vector under the control of a CMV promotor (see FIG. 1 for an illustration of such vector). Of course, an expression system and a host should match for best results. The host in this example were Hek293T cells, which were maintained under standard culture conditions in DMEM with 10% Fetal Bovine Serum and 1% Pen/Strep. For an experiment, Hek293T cells were seeded in opaque white tissue-culture treated 96-well plates at 80% confluency and transfected with vectors carrying reporter gene #01 and reporter gene #15 and 24 hours later incubated for 30 minutes at 37° C. in OptiMEM or in OptiMEM with 10 μM CCCP. After 30 minutes, the OptiMEM cell-culture media was replaced with luciferase substrate (furimazine, Promega) diluted 1:100 in OptiMEM, and bioluminescence was measured with a Fluoroskan Ascent FL (Thermo Scientific) using a 517 nm single-pass filter and 200 milliseconds integration time. […]
Example 5 illustrates how mitochondrial toxicity can be measured with reporter and assays of present invention. […] Hek293T cells expressing reporter #01 and #15 were exposed to CCCP, tipranavir and sorafenib (in OptiMEM) for 30 minutes before the medium was replaced with furimazine (1:100), and bioluminescence measured.

[8] = test system: Luke-S1 reporter; test: Rep#15 / Luke-S1 reporter cleavage in Hek293T cells by Western blot; type: cell-based, human; details: for cleavage of the Luke-S1 reporter in Western blots: 3 μM CCCP or 100 nM valinomycin
Experimental: For this example, transfected cells were selected by puromycin. […] […] If reporter #15 indeed is cleaved by OMA1, then phenanthroline should prevent this at least to a certain extend by inhibiting OMA1 and accordingly preserving the signal. Hek293T cells were transfected with reporter gene #15 as described in the preceding example. After 24 hours, the transfected cells were incubated with 500 μM phenanthroline in OptiMEM. After 1 hour of pretreatment, CCCP in OptiMEM/phenanthroline was added. to a final concentration of 10 μM CCCP and cells incubated for another 30 minutes at 37° C. After 30 minutes, the medium was replaced with furimazine (1:100 in OptiMEM), and bioluminescence measured as described in Example 1.
as §1

[9] = molecular target: T2, OMA1 protease; test: Screen of 166 FDA-approved cancer drugs and 390 natural products in Luke-S1 assays; type: cell-based; set-up: The OMA1 enzyme is dormant under physiological cell culture conditions in these cells; endogenous in cells; host or cells: Hek293T cells, transiently or stably (Luke-S1 line, ATCC PTA-127022) expressing reporter #15; details: valinomycin treated controls, ± SD
Experimental: Luke-S1 reporter cells were incubated with 10 μM of drugs for 60 minutes after which luciferase substrate was added and bioluminescence measured.

[10] = molecular target: T2, OMA1 protease; details: literature; cited from earlier work
[11] = molecular target: T2, OMA1 protease; test: Rep#15 / Luke-S1 OMA1 reporter bioluminescence assay in Hek293T cells; type: cell-based; set-up: The OMA1 enzyme is dormant under physiological cell culture conditions in these cells; endogenous in cells; host or cells: Hek293T cells, transiently or stably (Luke-S1 line, ATCC PTA-127022) expressing reporter #15

T1 sequence (Q9GV45 with tags, fused parts or gaps with the stated changes): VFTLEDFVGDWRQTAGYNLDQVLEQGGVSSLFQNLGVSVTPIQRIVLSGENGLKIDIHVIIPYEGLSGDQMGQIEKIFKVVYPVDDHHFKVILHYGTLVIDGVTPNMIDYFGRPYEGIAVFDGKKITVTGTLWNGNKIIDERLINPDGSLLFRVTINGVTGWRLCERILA

N#CC(C#N)=NNc1cccc(Cl)c1 [CCCP, carbonyl cyanide m-chlorophenyl hydrazone]
L-OPA1 proteolysis in Western blots ([1]; 3 μM CCCP): complete disappearance of L-OPA1 isoforms; also recorded: complete L-OPA1 proteolysis
processing of reporter #01 in Western blot [2]: led to processing
bioluminescence of Luke cells in dose-response [3]: completely eliminated
bioluminescence signal of reporter #15 [4]: significantly reduced or substantially absent luciferase activity; also recorded: abolished; also recorded: significantly reduced bioluminescence
cleavage of the Luke-TEV reporter in Western blots [5]: cleaved; also recorded: induced Luke-S1 and Luke-TEV cleavage
pEC50 ([6]; Luke-TEV cells, 30 minutes incubation): 6.25
bioluminescence signal of reporter #01 [7]: significantly reduced bioluminescence
cleavage of the Luke-S1 reporter in Western blots [8]: induced cleavage of the Luke-S1 reporter; also recorded: induced Luke-S1 and Luke-TEV cleavage
processing of reporter #15 in Western blot ([8]; 10 μM CCCP, 30 minutes): led to processing

CC(C)[C@@H]1NC(=O)[C@H](C)OC(=O)[C@@H](C(C)C)NC(=O)[C@@H](C(C)C)OC(=O)[C@H](C(C)C)NC(=O)[C@H](C)OC(=O)[C@@H](C(C)C)NC(=O)[C@@H](C(C)C)OC(=O)[C@H](C(C)C)NC(=O)[C@H](C)OC(=O)[C@@H](C(C)C)NC(=O)[C@@H](C(C)C)OC1=O [valinomycin]
signal intensity normalized to untreated cells (100%) [9]: 18.5%
L-OPA1 proteolysis in Western blots ([1]; 0.1 μM (100 nM) valinomycin): sufficed for OPA1 cleavage; also recorded: complete L-OPA1 proteolysis
effect on OMA1 protease [10]: can activate the OMA1 protease
real-time bioluminescence of Luke vs cells without valinomycin ([3]; 100 nM valinomycin added with luciferase substrate, after 10 minutes): no notable differences
bioluminescence of Luke cells in dose-response [3]: no effects
real-time bioluminescence of Luke-S1 vs cells without valinomycin ([11]; 100 nM valinomycin added with luciferase substrate, 25 minutes recording): marked signal reduction
Luke-S1 signal in cells treated with OMA1 siRNA ([11]; 100 nM valinomycin, 30 minutes): no significant signal reduction
Luke-S1 signal in cells treated with control siRNA ([11]; 100 nM valinomycin, 30 minutes): significant signal reduction
Luke-S1 signal in cells treated with OMA1 siRNA ([11]; 100 nM valinomycin, 30 minutes, listed as Valinomycin): not in Luke-S1 cells treated with OMA1 siRNA
cleavage of the Luke-TEV reporter in Western blots [5]: cleaved; also recorded: induced Luke-S1 and Luke-TEV cleavage
real-time bioluminescence of Luke-TEV vs cells without valinomycin ([6]; 100 nM valinomycin added with luciferase substrate): much smaller difference
signal of Luke-TEV cells in dose-response ([6]; 30 minutes incubation): only a minor signal reduction
cleavage of the Luke-S1 reporter in Western blots [8]: induced cleavage of the Luke-S1 reporter; also recorded: induced Luke-S1 and Luke-TEV cleavage
